Laboratory results reported in patent US9695155B2, “Herbicidal substituted pyrimidinyloxy benzene compounds” (E. I. DU PONT DE NEMOURS AND COMPANY, priority 2013, dated 2017).

Experiments:
[1] = system: barnyardgrass; experiment: Test A preemergence; assay type: in vivo, Echinochloa crus-galli; conditions: 0 to 100 scale where 0 is no effect and 100 is complete control
How it was run: (§1)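 Pre- and postemergence greenhouse screen. Soil: loam + sand. Spray carrier: solvent mixture, non-phytotoxic, with surfactant. Post timing at 1–2 leaves, height 2–10 cm. Readout: visual injury on a 0–100 scale roughly 10 days after application, untreated plants as reference.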

[2] = system: pigweed; experiment: Test A preemergence; assay type: in vivo, Amaranthus retroflexus; conditions: 0 to 100 scale where 0 is no effect and 100 is complete control
How it was run: as §1

[3] = system: wheat; experiment: Test A postemergence; assay type: in vivo, Triticum aestivum
How it was run: as §1

[4] = system: Heteranthera limosa; experiment: Test B flooded paddy test; assay type: in vivo; conditions: Flood, 250 g ai/ha, 0 to 100 scale where 0 is no effect and 100 is complete control
How it was run: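 Plants at 2-leaf stage; pots flooded to 3 cm above soil and compound applied directly into paddy water, depth held throughout. After 13 to 15 days in greenhouse, visual rating versus controls on 0 (no effect) to 100 (complete control) scale.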

[5] = system: blackgrass; experiment: Test C postemergence; assay type: in vivo, Alopecurus myosuroides
How it was run: (§2)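 Seeds were sown in loam–sand blend and sprayed preemergence, while plants at 1- to 4-leaf stage (2–18 cm) in peat-based medium received postemergence sprays; test chemicals were formulated in a non-phytotoxic solvent with surfactant. After 13–15 days in a greenhouse, injury was rated visually against controls, 0 (no effect) to 100 (complete control).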

[6] = system: morningglory; experiment: Test C postemergence; assay type: in vivo, Ipomoea coccinea
How it was run: as §2

[7] = system: pigweed; experiment: Test C postemergence; assay type: in vivo, Amaranthus retroflexus
How it was run: as §2

[8] = system: ragweed; experiment: Test C postemergence; assay type: in vivo, Ambrosia elatior
How it was run: as §2

[9] = system: barnyardgrass; experiment: Test C postemergence; assay type: in vivo, Echinochloa crus-galli
How it was run: as §2

[10] = system: kochia; experiment: Test C postemergence; assay type: in vivo, Kochia scoparia
How it was run: as §2

[11] = system: wild oat; experiment: Test C postemergence; assay type: in vivo, Avena fatua
How it was run: as §2

[12] = system: velvetleaf; experiment: Test C postemergence; assay type: in vivo, Abutilon theophrasti
How it was run: as §2

[13] = 31 g ai/ha, visual, approximately 10 days
[14] = 16 g ai/ha, postemergence, 0 is no effect, 100 is complete control
[15] = 125 g ai/ha, postemergence, visual rating, scale 0 to 100 (0 no effect, 100 complete control)
[16] = Postemergence, 31 g ai/ha, scale 0 to 100 (0 no effect, 100 complete control), 13 to 15 days
[17] = Postemergence, 62 g ai/ha, scale 0 to 100 (0 no effect, 100 complete control)

N#Cc1cccc(Oc2ncc(Cl)cn2)c1-n1cc(SC(F)(F)F)cn1 [Compound 134, 3-[(5-chloro-2-pyrimidinyl)oxy]-2-[4-(trifluoromethylthio)-1-pyrazolyl]benzonitrile]
Plant response rating, Barnyardgrass ([1]; 125 g ai/ha): 70 | Barnyardgrass plant response rating ([1]; 500 g ai/ha): 100 | Pigweed plant response rating ([2]; 500 g ai/ha): 100 | pest or weed control at 125 g/ha ([2]; Amaranthus retroflexus, pre-emergence, 125 g ai/ha, read-out: Plant response rating, Pigweed): 100% | Plant response rating, Wheat ([3]; 500 g ai/ha, 0 to 100 scale where 0 is no effect and 100 is complete control): 70 | plant injury at 125 g/ha ([3]; Triticum aestivum, post-emergence, 240 h, 125 g ai/ha, 0 to 100 scale where 0 is no effect and 100 is complete control, read-out: Wheat plant response rating): 0% | pest or weed control at 250 g/ha ([4]; Heteranthera limosa, read-out: Plant response rating, Ducksalad): 30% | pest or weed control at 16 g/ha ([5]; Alopecurus myosuroides, post-emergence, 16 g ai/ha, postemergence, 0 is no effect, 100 is complete control, read-out: Plant response rating (0 to 100), Blackgrass): 5% | pest or weed control at 125 g/ha ([5]; Alopecurus myosuroides, post-emergence, 125 g ai/ha, postemergence, visual rating, scale 0 to 100 (0 no effect, 100 complete control), read-out: Plant response rating, Blackgrass): 10% | pest or weed control at 31 g/ha ([5]; Alopecurus myosuroides, post-emergence, Postemergence, 31 g ai/ha, scale 0 to 100 (0 no effect, 100 complete control), 13 to 15 days, read-out: Plant response rating, Blackgrass): 25% | pest or weed control at 62 g/ha ([5]; Alopecurus myosuroides, post-emergence, Postemergence, 62 g ai/ha, scale 0 to 100 (0 no effect, 100 complete control), read-out: Plant response rating, Blackgrass): 5% | pest or weed control at 16 g/ha ([6]; Ipomoea, post-emergence, 16 g ai/ha, postemergence, 0 is no effect, 100 is complete control, read-out: Plant response rating (0 to 100), Morningglory): 70% | pest or weed control at 125 g/ha ([6]; Ipomoea, post-emergence, 125 g ai/ha, postemergence, visual rating, scale 0 to 100 (0 no effect, 100 complete control), read-out: Plant response rating, Morningglory): 95% | pest or weed control at 62 g/ha ([6]; Ipomoea, post-emergence, Postemergence, 62 g ai/ha, scale 0 to 100 (0 no effect, 100 complete control), read-out: Plant response rating, Morningglory): 85% | pest or weed control at 16 g/ha ([7]; Amaranthus retroflexus, post-emergence, 16 g ai/ha, postemergence, 0 is no effect, 100 is complete control, read-out: Plant response rating (0 to 100), Pigweed): 75% | pest or weed control at 125 g/ha ([7]; Amaranthus retroflexus, post-emergence, 125 g ai/ha, postemergence, visual rating, scale 0 to 100 (0 no effect, 100 complete control), read-out: Plant response rating, Pigweed): 85% | pest or weed control at 62 g/ha ([7]; Amaranthus retroflexus, post-emergence, Postemergence, 62 g ai/ha, scale 0 to 100 (0 no effect, 100 complete control), read-out: Plant response rating, Pigweed): 85% | pest or weed control at 16 g/ha ([8]; Ambrosia artemisiifolia, post-emergence, 16 g ai/ha, postemergence, 0 is no effect, 100 is complete control, read-out: Plant response rating (0 to 100), Ragweed): 10% | pest or weed control at 125 g/ha ([8]; Ambrosia artemisiifolia, post-emergence, 125 g ai/ha, postemergence, visual rating, scale 0 to 100 (0 no effect, 100 complete control), read-out: Plant response rating, Ragweed): 55% | pest or weed control at 62 g/ha ([8]; Ambrosia artemisiifolia, post-emergence, Postemergence, 62 g ai/ha, scale 0 to 100 (0 no effect, 100 complete control), read-out: Plant response rating, Ragweed): 55% | pest or weed control at 16 g/ha ([9]; Echinochloa crus-galli, post-emergence, 16 g ai/ha, postemergence, 0 is no effect, 100 is complete control, read-out: Plant response rating (0 to 100), Barnyardgrass): 0% | pest or weed control at 125 g/ha ([9]; Echinochloa crus-galli, post-emergence, 125 g ai/ha, postemergence, visual rating, scale 0 to 100 (0 no effect, 100 complete control), read-out: Plant response rating, Barnyardgrass): 10% | pest or weed control at 31 g/ha ([9]; Echinochloa crus-galli, post-emergence, Postemergence, 31 g ai/ha, scale 0 to 100 (0 no effect, 100 complete control), 13 to 15 days, read-out: Plant response rating, Barnyardgrass): 5% | pest or weed control at 62 g/ha ([9]; Echinochloa crus-galli, post-emergence, Postemergence, 62 g ai/ha, scale 0 to 100 (0 no effect, 100 complete control), read-out: Plant response rating, Barnyardgrass): 5% | pest or weed control at 16 g/ha ([10]; Bassia scoparia, post-emergence, 16 g ai/ha, postemergence, 0 is no effect, 100 is complete control, read-out: Plant response rating (0 to 100), Kochia): 75% | pest or weed control at 125 g/ha ([10]; Bassia scoparia, post-emergence, 125 g ai/ha, postemergence, visual rating, scale 0 to 100 (0 no effect, 100 complete control), read-out: Plant response rating, Kochia): 95% | pest or weed control at 62 g/ha ([10]; Bassia scoparia, post-emergence, Postemergence, 62 g ai/ha, scale 0 to 100 (0 no effect, 100 complete control), read-out: Plant response rating, Kochia): 95% | pest or weed control at 16 g/ha ([11]; Avena fatua, post-emergence, 16 g ai/ha, postemergence, 0 is no effect, 100 is complete control, read-out: Plant response rating (0 to 100), Oat, Wild): 5% | pest or weed control at 125 g/ha ([11]; Avena fatua, post-emergence, 125 g ai/ha, postemergence, visual rating, scale 0 to 100 (0 no effect, 100 complete control), read-out: Plant response rating, Oat, Wild): 10% | pest or weed control at 62 g/ha ([11]; Avena fatua, post-emergence, Postemergence, 62 g ai/ha, scale 0 to 100 (0 no effect, 100 complete control), read-out: Plant response rating, Oat, Wild): 10% | pest or weed control at 16 g/ha ([12]; Abutilon theophrasti, post-emergence, 16 g ai/ha, postemergence, 0 is no effect, 100 is complete control, read-out: Plant response rating (0 to 100), Velvetleaf): 30% | pest or weed control at 125 g/ha ([12]; Abutilon theophrasti, post-emergence, 125 g ai/ha, postemergence, visual rating, scale 0 to 100 (0 no effect, 100 complete control), read-out: Plant response rating, Velvetleaf): 55% | pest or weed control at 62 g/ha ([12]; Abutilon theophrasti, post-emergence, Postemergence, 62 g ai/ha, scale 0 to 100 (0 no effect, 100 complete control), read-out: Plant response rating, Velvetleaf): 50%

N#Cc1cnn(-c2c(Br)cccc2Oc2ncc(Cl)cn2)c1 [Compound 140]
Plant response rating, Barnyardgrass [1, 13]: 30 | Plant response rating, Barnyardgrass ([1]; 125 g ai/ha): 70 | Plant response rating, Pigweed [2, 13]: 90 | Plant response rating, Pigweed ([2]; 125 g ai/ha): 100 | Plant response rating, Wheat ([3]; 31 g ai/ha, 0 to 100 scale, 0 no effect, 100 complete control): 0 | Wheat plant response rating ([3]; 125 g ai/ha, 0 to 100 scale where 0 is no effect and 100 is complete control): 0 | Plant response rating, Ducksalad [4]: 80 | Plant response rating (0 to 100), Blackgrass [5, 14]: 0 | Plant response rating, Blackgrass [5, 15]: 5 | Plant response rating, Blackgrass [5, 16]: 0 | Plant response rating, Blackgrass [5, 17]: 0 | Plant response rating (0 to 100), Morningglory [6, 14]: 0 | Plant response rating, Morningglory [6, 15]: 70 | Plant response rating, Morningglory [6, 17]: 75 | Plant response rating (0 to 100), Pigweed [7, 14]: 85 | Plant response rating, Pigweed [7, 15]: 90 | Plant response rating, Pigweed [7, 17]: 90 | Plant response rating (0 to 100), Ragweed [8, 14]: 25 | Plant response rating, Ragweed [8, 15]: 75 | Plant response rating, Ragweed [8, 17]: 60 | Plant response rating (0 to 100), Barnyardgrass [9, 14]: 5 | Plant response rating, Barnyardgrass [9, 15]: 10 | Plant response rating, Barnyardgrass [9, 16]: 10 | Plant response rating, Barnyardgrass [9, 17]: 10 | Plant response rating (0 to 100), Kochia [10, 14]: 70 | Plant response rating, Kochia [10, 15]: 90 | Plant response rating, Kochia [10, 17]: 85 | Plant response rating (0 to 100), Oat, Wild [11, 14]: 0 | Plant response rating, Oat, Wild [11, 15]: 5 | Plant response rating, Oat, Wild [11, 17]: 0 | Plant response rating (0 to 100), Velvetleaf [12, 14]: 5 | Plant response rating, Velvetleaf [12, 15]: 60 | Plant response rating, Velvetleaf [12, 17]: 45
